Measurements published in patent US11661398B2, “Cellular transport system for transferring a sulfonic acid construct carrying a cargo into the cytoplasm of a cell” (Scientist of Fortune, S.A., priority 2017, dated 2023).
Entries after “also recorded” stand apart in the source; their conditions may differ. Where a name gives a salt, the structure may show the parent alone.

How the values were obtained:
TK082 = experiment: In vivo hydrolysis of sulfobutanoyl-p-nitroanilide and sulfobutanoyl-AMC; assay type: cell-based, E. coli; conditions: 0.5 mM compound, different plasmid combinations
Experimental: Strain TK082 was transformed with plasmids as indicated in the text and grown at 37° C. in MS minimal medium supplemented with 0.5% glucose, 1 mM MgSO4 and 0.4 mM L-leucine to an OD600 of 0.5. At that stage, the synthesis of PnGGT* and/or SsuABC was induced for 2 hours by adding 0.5 mM IPTG and 100 ng mL^−1 aTc. Following this synthesis period, cells were washed in the same medium to remove proteins that had been released into the medium by cell lysis. After an additional centrifugation step, cells were resuspended in MS minimal medium supplemented with 0.5% glucose, 1 mM MgSO4, 0.4 mM L-leucine, 0.5 mM IPTG, 100 ng mL^−1 aTc and 0.5 mM sulfobutanoyl-p-nitroanilide or sulfobutanoyl-AMC (see below for description of synthesis) and incubated in a Tecan Infinite 200 Pro plate reader at 37° C. To monitor cell density and the release of 4-nitroaniline, absorbance was constantly measured at 600 nm and 410 nm. The release of AMC was monitored by measuring the fluorescence at λex=350 nm and λem=450 nm. To determine the influence of competition for the sulfonate transporter SsuABC, different concentrations of pentanesulfonate (Sigma Aldrich) were added to the medium.

PnGGT ΔN24 = PnGGT ΔN24 (Pseudomonas nitroreducens, UniProt E0D5C2); experiment: Kinetic measurements with purified PnGGT ΔN24; assay type: biochemical
Experimental: (§1) For the experiments relating to the sulfonate based synthetic transport system, purification of PnGGT ΔN24 and PnGGT ΔN24 D405N containing an N-terminal 6×His-tag was performed according to previous reports (Van Dyke et al., 1992) using Ni-NTA Superflow (Qiagen, Hilden, Germany). For kinetic studies, PnGGT variants were purified with the aid of the 6×His-tag located at the N-terminal end of the large subunit following the same procedure. To exchange the buffer, purified proteins were dialyzed against 50 mM Tris/HCl (pH 7.0).
To determine the kinetic parameters of PnGGT ΔN24 and PnGGT ΔN24 D405N the purified enzymes were preincubated in 50 mM Tris-HCl (pH 9.0). To start the reaction, varying concentrations of the substrates L-glutamic acid γ-(3-carboxy-4-nitroanilide) or sulfobutanoyl-p-nitroanilide were added to the mixtures. The results were evaluated using GraphPad Prism (GraphPad Software, La Jolla, Calif., USA).

PnGGT* P505T [1] = experiment: Sulfobutanoyl-p-nitroanilide hydrolysis kinetics; assay type: biochemical, Pseudomonas nitroreducens; conditions: 50 mM Tris/HCl (pH 7.0)
Experimental: FIG. 31. Sulfobutanoyl-p-nitroanilide hydrolysis kinetics of PnGGT* P505T. The kinetic parameters of PnGGT* P505T were determined in 50 mM Tris/HCl (pH 7.0) with the substrate sulfobutanoyl-p-nitroanilide added to the following concentrations: 50, 100, 250, 500, 750, 1000, 1500 and 2000 μM. […] Fitting of the kinetic data was performed with SigmaPlot v.12.2. Dots represent the average of three independent measurements with standard deviations shown as error bars.
as §1

PnGGT* D385Y = experiment: GGT* activity assay with cell free extracts of PnGGT* mutant variants; assay type: biochemical, Pseudomonas nitroreducens; conditions: 2 mM substrate
Experimental: (§2) FIG. 29. Expression analysis of selected PnGGT* mutant variants. Strain TK018 was transformed with the empty vector pACT3, the parent plasmid pPnGGT* or selected mutant variants thereof and grown in LB medium to early exponential phase. Synthesis of the PnGGT* variants was induced for 4 hours by adding 0.5 mM IPTG to the culture. (a) GGT* activity assays with cell free extracts and 2 mM of the substrate sulfobutanoyl-p-nitroanilide. […] Bars represent the average of three independent measurements with standard deviations shown as error bars. (b) SDS-PAGE of cell free extracts to confirm loading of similar protein amounts. (c) Western Blot of cell free extracts with an antibody directed against the large subunit of PnGGT* (38.5 kDa). Mutant variants Y167V Q168P and Y167H Q168G were synthesized slightly less efficiently than PnGGT*. All other mutant variants were synthesized with similar efficiency as PnGGT*.

PnGGT* P505T [2] = experiment: as above; assay type: biochemical, Pseudomonas nitroreducens; conditions: 2 mM substrate, sodium salt
Experimental: as §2

## O=C(CCCS(=O)(=O)O)Nc1ccc([N+](=O)[O-])cc1 [sodium salt]
TK082
  in vivo release of 4-nitroaniline from the compound: only released from the SBA moiety when SsuABC and PnGGT* were simultaneously synthesized
PnGGT ΔN24
  hydrolysis of substrate by purified enzyme: no detectable activity
PnGGT* P505T [1]
  improvement of catalytic efficiency (kcat/KM) over PnGGT*: 39%
  improvement of kcat over PnGGT*: 8%
PnGGT* P505T [1]; 50-2000 μM substrate
  lower K (KM) over PnGGT*: 27%
PnGGT* D385Y
  activity towards substrate: low activity
PnGGT* P505T [2]
  activity towards substrate compared to PnGGT*: elevated activity; also recorded: slightly elevated in vitro activity
